Results: paper PMC3774597 (Journal of biomolecular screening, 2012)
Each block holds one molecule with its values, some of them ahead of it.

Experiments:
[1] = molecular target: T1, isoleucyl-tRNA synthetase (IleRS) (Trypanosoma brucei, UniProt Q38A55); assay: malachite green aminoacylation assay coupled to pyrophosphatase, dose response; format: biochemical
T1 sequence (Q38A55 67-1143): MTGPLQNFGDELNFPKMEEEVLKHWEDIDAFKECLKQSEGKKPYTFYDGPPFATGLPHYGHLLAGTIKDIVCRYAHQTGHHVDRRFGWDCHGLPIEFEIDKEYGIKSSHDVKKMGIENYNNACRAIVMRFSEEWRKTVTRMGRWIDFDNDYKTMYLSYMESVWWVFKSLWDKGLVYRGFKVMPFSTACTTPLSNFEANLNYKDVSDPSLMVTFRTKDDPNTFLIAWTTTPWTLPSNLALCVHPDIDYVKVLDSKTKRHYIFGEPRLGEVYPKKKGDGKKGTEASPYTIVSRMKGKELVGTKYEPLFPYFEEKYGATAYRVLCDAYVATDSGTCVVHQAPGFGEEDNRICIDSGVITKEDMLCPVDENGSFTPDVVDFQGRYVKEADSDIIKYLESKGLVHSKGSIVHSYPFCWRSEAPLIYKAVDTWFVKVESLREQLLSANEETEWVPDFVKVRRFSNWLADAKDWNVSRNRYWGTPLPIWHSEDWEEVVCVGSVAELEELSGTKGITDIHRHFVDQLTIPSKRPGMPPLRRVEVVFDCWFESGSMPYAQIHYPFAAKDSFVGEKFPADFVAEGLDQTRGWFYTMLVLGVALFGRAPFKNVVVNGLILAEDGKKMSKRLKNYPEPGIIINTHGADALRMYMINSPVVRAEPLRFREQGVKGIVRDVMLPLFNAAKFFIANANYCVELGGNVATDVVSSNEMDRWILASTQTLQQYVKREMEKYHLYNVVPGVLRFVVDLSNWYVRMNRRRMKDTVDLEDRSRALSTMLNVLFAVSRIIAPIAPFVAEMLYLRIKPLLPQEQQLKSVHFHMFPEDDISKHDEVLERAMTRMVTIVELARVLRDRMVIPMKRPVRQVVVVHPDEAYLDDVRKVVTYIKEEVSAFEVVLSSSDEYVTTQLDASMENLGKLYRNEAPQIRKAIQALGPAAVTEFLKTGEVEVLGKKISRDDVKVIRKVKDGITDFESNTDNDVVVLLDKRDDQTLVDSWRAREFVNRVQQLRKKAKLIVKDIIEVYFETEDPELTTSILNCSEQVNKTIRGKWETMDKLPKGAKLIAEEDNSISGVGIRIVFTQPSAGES

[2] = substrate: CC[C@H](C)[C@H](N)C(=O)O; assay: Michaelis-Menten kinetics; format: biochemical, Trypanosoma brucei

IC50 [1]: 600 nM
Molecule: CC(C)(C)[Si](C)(C)OCC1OC(n2cnc3c(N)ncnc32)C(O)C1O (centres unmarked) [NSC616354]

B1: isoleucyl-tRNA synthetase (IleRS) (Trypanosoma brucei brucei TREU927) (protein)
chain: T1 sequence (Q38A55 67-1143)
Km [2]: 39.7 µM
